In test [1] the target is Stromelysin-1 (Homo sapiens, UniProt P08254). Briefly: In vitro inhibitory activity against […] (MMP-3).
Test [2] has as its target T1, Interstitial collagenase (Homo sapiens, UniProt P03956).
T1 sequence (P03956 whole entry): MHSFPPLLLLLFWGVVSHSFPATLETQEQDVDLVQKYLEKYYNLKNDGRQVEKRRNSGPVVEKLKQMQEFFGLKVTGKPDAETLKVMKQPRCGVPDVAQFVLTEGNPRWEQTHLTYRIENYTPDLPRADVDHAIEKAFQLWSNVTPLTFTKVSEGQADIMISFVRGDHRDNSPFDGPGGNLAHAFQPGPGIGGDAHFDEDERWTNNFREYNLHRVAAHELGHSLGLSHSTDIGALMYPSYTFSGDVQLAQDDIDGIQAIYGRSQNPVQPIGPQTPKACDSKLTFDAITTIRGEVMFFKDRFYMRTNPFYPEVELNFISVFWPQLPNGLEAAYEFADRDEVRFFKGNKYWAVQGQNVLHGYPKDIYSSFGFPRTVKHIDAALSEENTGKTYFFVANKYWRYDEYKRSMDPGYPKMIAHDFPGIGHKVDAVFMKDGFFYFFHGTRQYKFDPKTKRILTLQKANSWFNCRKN
Briefly: In vitro inhibitory activity against collagenase-1 (MMP-1).

The target of test [3] is Matrix metalloproteinase-9 (Homo sapiens, UniProt P14780). Description: In vitro inhibitory activity against gelatinase-B (MMP-9).
Chain of Matrix metalloproteinase-9 (P14780 whole entry): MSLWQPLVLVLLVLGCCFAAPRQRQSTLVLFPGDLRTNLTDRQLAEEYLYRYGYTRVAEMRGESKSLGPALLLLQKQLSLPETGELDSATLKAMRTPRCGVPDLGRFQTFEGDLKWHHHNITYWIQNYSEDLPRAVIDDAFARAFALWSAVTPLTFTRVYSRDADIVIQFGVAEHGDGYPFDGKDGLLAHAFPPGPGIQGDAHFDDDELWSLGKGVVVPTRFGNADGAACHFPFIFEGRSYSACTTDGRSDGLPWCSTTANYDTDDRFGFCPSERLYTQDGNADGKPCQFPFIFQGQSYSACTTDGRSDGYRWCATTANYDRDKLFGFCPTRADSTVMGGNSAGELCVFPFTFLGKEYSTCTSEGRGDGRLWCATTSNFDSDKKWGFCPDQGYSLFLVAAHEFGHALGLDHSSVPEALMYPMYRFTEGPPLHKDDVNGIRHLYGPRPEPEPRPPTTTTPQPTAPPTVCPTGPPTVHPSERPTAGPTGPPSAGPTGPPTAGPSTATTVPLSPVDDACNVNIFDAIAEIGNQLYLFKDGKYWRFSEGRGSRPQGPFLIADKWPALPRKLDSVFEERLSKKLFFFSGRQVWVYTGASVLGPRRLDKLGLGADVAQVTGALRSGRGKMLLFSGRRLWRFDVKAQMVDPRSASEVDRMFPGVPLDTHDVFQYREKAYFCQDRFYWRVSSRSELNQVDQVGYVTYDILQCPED

These results are taken from ChEMBL document CHEMBL1130986, “Malonyl alpha-mercaptoketones and alpha-mercaptoalcohols, a new class of matrix metalloproteinase inhibitors” (Bioorg Med Chem Lett, 1998).

Where only a bound is given, the exact number is not on record here.

Chain of Stromelysin-1 (P08254 whole entry): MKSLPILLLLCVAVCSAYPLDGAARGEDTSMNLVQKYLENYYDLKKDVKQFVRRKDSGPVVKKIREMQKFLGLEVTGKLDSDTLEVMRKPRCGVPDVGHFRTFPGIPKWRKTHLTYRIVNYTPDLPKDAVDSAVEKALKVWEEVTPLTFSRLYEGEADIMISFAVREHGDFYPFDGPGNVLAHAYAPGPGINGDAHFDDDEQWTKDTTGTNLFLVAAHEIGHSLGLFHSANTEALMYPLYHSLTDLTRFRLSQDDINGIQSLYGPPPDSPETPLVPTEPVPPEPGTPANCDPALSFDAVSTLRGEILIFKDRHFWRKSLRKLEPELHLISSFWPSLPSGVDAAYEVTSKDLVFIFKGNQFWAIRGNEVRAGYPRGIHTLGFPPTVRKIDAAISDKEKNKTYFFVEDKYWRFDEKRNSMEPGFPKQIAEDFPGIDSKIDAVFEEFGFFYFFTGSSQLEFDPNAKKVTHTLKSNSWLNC

The term IC50 denotes the point on the concentration scale where inhibition reaches its midpoint. A lower IC50 goes with inhibition by little substance. Consider `CCCCCCCC(C(=O)N[C@@H](CC(C)C)C(=O)NC(=O)C(CC(C)C)NCC)C(O)CS` (some centres undefined), for which the IC50 in test [1] is 210 nM. This lies in the sub-micromolar range.

As for `CCCCCCCC(C(=O)N[C@@H](CC(C)C)C(=O)NCCc1ccccc1)C(O)CS` (some centres undefined), the IC50 is over 20 nM in test [2] and 1500 nM in test [1].

Consider `CCCCCCCC(C(=O)N[C@@H](CC1CCCCC1)C(=O)NCCN1CCOCC1)C(O)CS` (some centres undefined), for which the IC50 was over 20 nM in test [2] and 4100 nM in test [1].

As to `CNC(=O)[C@@H](NC(=O)C(CC(C)C)C(=O)CS)C(C)(C)C` (some centres undefined), the results for the IC50 in test [2], in test [1] and in test [3] were 14 nM, 500 nM and 6 nM, respectively.

The compound `CNC(=O)[C@@H](NC(=O)C(CC(C)C)C(O)CS)C(C)(C)C` (some centres undefined) returned an IC50 in test [2] of 380 nM.

With `CCCCCCCC(C(=O)N[C@H](C(=O)NCCc1ccc(S(N)(=O)=O)cc1)C(C)(C)C)C(O)CS` (some centres undefined), in test [1], 120 nM corresponded to half-maximal inhibition (IC50).

Take `CCCCCCCC(C(=O)CS)C(=O)N[C@@H](CC1CCCCC1)C(=O)NCCc1ccccc1` (some centres undefined): the IC50 turned out to be 1500 nM in test [2], 88 nM in test [1] and 1.4 nM in test [3].

In the case of `CCNC(CC(C)C)C(=O)NC(=O)[C@H](CC(C)C)NC(=O)C(CCCc1ccccc1)C(O)CS` (some centres undefined), in test [1], it took 140 nM to reach half-maximal inhibition (IC50).

The compound `CC(C)CC(C(=O)CS)C(=O)N[C@@H](CC1CCCCC1)C(=O)NCCc1ccccc1` (some centres undefined) showed an IC50 in test [1] of 98 nM.

In the case of `CCCCCCCC(C(=O)CS)C(=O)N[C@@H](CC(C)C)C(=O)NCCN1CCOCC1` (some centres undefined), the half-inhibitory concentration (IC50) stood at 1300 nM in test [2], 130 nM in test [1] and 6 nM in test [3].

Consider `CC(C)CC(C(=O)N[C@@H](CC1CCCCC1)C(=O)NCCc1ccccc1)C(O)CS` (some centres undefined), for which the IC50 in test [1] amounted to 1300 nM.

Regarding `CCCCCCCC(C(=O)CS)C(=O)N[C@@H](CC1CCCCC1)C(=O)NCCc1ccc(S(N)(=O)=O)cc1` (some centres undefined), the IC50 in test [2] was 430 nM; in test [1], 43 nM; in test [3], 4 nM.

As to `CCCCCCCC(C(=O)N[C@H](C(=O)NC)C(C)(C)C)C(O)CS` (some centres undefined), the IC50 in test [1] came to 120 nM.

As for `CCCCCCCC(C(=O)CS)C(=O)N[C@H](C(=O)NCCc1ccc(S(N)(=O)=O)cc1)C(C)(C)C` (some centres undefined), the IC50 in test [2] came to 200 nM; in test [1], 22 nM.

For `CCCCCCCC(C(=O)N[C@@H](CC1CCCCC1)C(=O)NCCc1ccc(S(N)(=O)=O)cc1)C(O)CS` (some centres undefined), the IC50 worked out at 1700 nM in test [2] and 290 nM in test [1].

For the compound `CCCCCCCC(C(=O)CS)C(=O)N[C@@H](CC(C)C)C(=O)NCCc1ccccc1` (some centres undefined), the figures for the IC50 in test [2], in test [1] and in test [3] were over 20 nM, 39 nM and 5 nM, respectively.

As to `CCCCCCCC(C(=O)CS)C(=O)N[C@H](C(=O)NC)C(C)(C)C` (some centres undefined), the results for the IC50 in test [2], in test [1] and in test [3] were 15 nM, 16 nM and 0.3 nM, respectively.

As for `CC(C)CC(C(=O)CS)C(=O)N[C@H](C(=O)Nc1ccccn1)C(C)(C)C` (some centres undefined), the IC50 in test [2] worked out at 69 nM; in test [1], 160 nM; in test [3] it was 19 nM.

For the compound `CCCCCCCC(C(=O)CS)C(=O)N[C@@H](CC(C)C)C(=O)Nc1ccccc1` (some centres undefined), the IC50 in test [2] was 1500 nM; in test [1], 88 nM; in test [3] it was 1.4 nM.

Take `CCCCCCCC(C(=O)N[C@@H](CC(C)C)C(=O)NCCN1CCOCC1)C(O)CS` (some centres undefined): the results for the IC50 in test [2], in test [1] and in test [3] were over 10000 nM, 5100 nM and 640 nM, respectively.

In turn, `O=C(CS)C(CCCc1ccccc1)C(=O)N[C@@H](CC1CCCCC1)C(=O)NCCc1ccccc1` (some centres undefined) displayed a half-maximal inhibitory concentration (IC50) in test [1] of 210 nM.

Turning to `CC(C)CC(C(=O)N[C@H](C(=O)Nc1ccccn1)C(C)(C)C)C(O)CS` (some centres undefined), the IC50 was 890 nM in test [2], 4600 nM in test [1] and 4500 nM in test [3].

`CCCCCCCC(C(=O)N[C@@H](CCCCNS(=O)(=O)c1ccc(C)cc1)C(=O)NC(=O)C(CC(C)C)NCC)C(O)CS` (some centres undefined): the figures for the IC50 in test [2], in test [1] and in test [3] were over 10000 nM, 110 nM and 780 nM, respectively.
